# According to publication PMC12858405, “Ideal efficacy photoswitching for chromocontrol of TRPC4/5 channel functions in live tissues” (Nature Chemical Biology, 2026):
# Assays:
# [1] = Stability in DTT-containing buffers (HPLC analysis); type: physicochemical; details: confirmed by HPLC analysis
# Source text: Müller, Niemeyer, et al., Schaefer & Thorn-Seshold 2025: Ideal Efficacy Photoswitching of TRPC4/5 in Tissue 1.4 Supplementary Note 4: Structural Biology and TRP Selectivity
# We prepared and acquired TRPC5:E/Z-AzHC samples in one lab, and TRPC4:E/Z-AzPico independently in another, which was useful for several plausibility checks. (1) There are additional lipid densities in the pockets that are present in both TRPC4 and TRPC5, and the changes to the lipid densities in the EM maps between E and Z isomers are similar in TRPC4 and TRPC5 as well: so these changes are not dependent on protein, nature of amphipol used, or lab in which the data were obtained/processed, but are rather inherent features of the system. (2) The positions of the distal rings which are much less-well-resolved than the rest of the ligand, were independently best aligned for the E and Z isomers, and in each case found to be Z-buried vs. E-projected, which gives more confidence in this structure-based analysis. (3) Identical deleterious effects of DTT were found in each lab, and removing it removed those problems.
# 1.4.1 Detailed Commentary: hTRPC5:E/Z-AzHC […]
# We determined high-resolution structures of hTRPC5:(E)-AzHC (2.60 Å) and hTRPC5:(Z)-AzHC (2.90 Å) without applying symmetry (Fig. 3; Supplementary Fig. 4-5 and 15-18; Supplementary […]
# [2] = tested on: mouse ileal or jejuneal segments; assay: Myographic isometric contractility of intestinal segments during photoswitching
# Source text: Basal tension was then restored under 447-nm light and 365/447-nm cycling could be repeated many times (Fig. 6e). […]
# 7 Spontaneous motility and isometric contractility (Fig. 6)
# After sacrificing mice in accordance to the European (Council Directive 2010/63/EU) and German guidelines for the welfare of experimental animals, the abdomen was opened, and intestinal loops were mobilised. Ileal segments were obtained starting 10 mm from the ileocoecal junction. Ileal segments with a length of 3 mm for myography experiments or with a length of 8-12 mm for observation of spontaneous movement were cut out and flushed with carbogen-equilibrated KBRS.
# The adventitial layer was carefully peeled off, using a pair of forceps. The remaining intestinal segments, comprising mucosal, submucosal and muscular layers were placed in carbogen-saturated KBRS and immediately used for the experiments. Throughout these experiments, "wild-type" mice have the same genetic background as the knockout mice. For myography experiments, intestinal segments were prepared from mice at the age of 4-7 months. Wild-type control mice were matched in age to the respective knock-out animals.
# Mice were housed in groups of two to three animals under the approved standard conditions including a 12 h light-dark-regime and access to food and water ad libitum (see above). Strains for testing intestinal contractility were C57BL6/N mice (from Charles River) and homozygous TRPC5 or TRPC4 single knockout mice,80 both back-crossed on the C57BL6/N background for at least five generations. All mice were of male sex. […]
# Myographic isometric contractility: The contractile forces exerted by the circular layer of intestinal segments were quantitatively assessed by measurement in a 4-channel calibrated multi myograph device (DMT 620M, Danish Myo Technology, Hinnerup, Denmark), with digital data acquisition controlled by Labchart software (Version v8; ADINSTRUMENTS). Heated (37°C) bath chambers were filled with carbogen-equilibrated KBRS, and typically 3-mm ileal segments were manoeuvred over custom-made u-shaped hooks that prevented the mucosal layer from prolapsing on the edges. A pre-tension of typically 1.5-2 mN/mm was applied, and ileal segments were allowed […]
# solvent (0.5% DMSO). After renewing the pre-tension, the recording of isometric contractions was started, while applying alternating illuminations typically at 365 nm and 447 nm, or else at 385 nm and 470 nm, (typically 10 s exposure each) over typically 9-11 cycles, with no additional illumination […]
# segments (N/m) (Fig. 6d-h, Supplementary Fig. 23c-g).
# 7.1.1 First Saturate with Ligand, Then Dial the Wavelength
# Even in the usually tricky situation that a targeted biological effect only occurs when a protein target is partially but not fully stimulated (here: physiology-like contractility as in Fig. 6e, with the overlay of the normal oscillatory frequncy), ideal efficacy switches are still perfectly capable of addressing them robustly. What is possible in the rare case that only fixed operating wavelengths may be available [e.g. in Fig. 6ef, if only 365 nm and 447 nm would be available], would be to use a sub-
Stability in DTT-containing buffers [1],Compound,"Response of segments of TRPC4-deficient mice ([2]; 3 nM, 365/447 nm)","Increase of oscillatory forces under 365 nm ([2]; 3 nM, wild-type segments) [×]","Time to recovery of oscillatory contractions under 447 nm ([2]; 30 nM, after 365 nm rictus-like state) [s]","Effect of 365 nm at moderate to high concentration ([2]; 30 nM, 365 nm)","Photoswitchability after medium replacement ([2]; 300 nM preincubated 2 h, then washed 2 h, 385/470 nm)","Effect of 385 nm at saturating concentration ([2]; 300 nM, 385 nm)",Tonic and oscillatory force photoresponses in TRPC5-deficient mice vs matched control mice ([2]; 365/447 nm)
degrades,Cn1c(=O)n(CCCO)c(=O)c2c1nc(Oc1ccc(N=Nc3ccccc3)c(Cl)c1)n2Cc1ccc(Cl)cc1 [AzHC],,,,,,,
,Cn1c(=O)n(CCCO)c(=O)c2c1nc(Oc1ccc(N=Nc3ccccc3)c(OC(F)(F)F)c1)n2Cc1ccc(Cl)cc1 [AzPico],never responded,1.9,10 to 30,rictus-like intestinal tensioning and rundown,remain perfectly photoreversibly operable,only partial channel activation,indistinguishable
